The values that follow come from patent publication US20230295212A1 (ROME Therapeutics, Inc., priority 2022, published 2023).

T1 sequence (O00370 whole entry, looked up): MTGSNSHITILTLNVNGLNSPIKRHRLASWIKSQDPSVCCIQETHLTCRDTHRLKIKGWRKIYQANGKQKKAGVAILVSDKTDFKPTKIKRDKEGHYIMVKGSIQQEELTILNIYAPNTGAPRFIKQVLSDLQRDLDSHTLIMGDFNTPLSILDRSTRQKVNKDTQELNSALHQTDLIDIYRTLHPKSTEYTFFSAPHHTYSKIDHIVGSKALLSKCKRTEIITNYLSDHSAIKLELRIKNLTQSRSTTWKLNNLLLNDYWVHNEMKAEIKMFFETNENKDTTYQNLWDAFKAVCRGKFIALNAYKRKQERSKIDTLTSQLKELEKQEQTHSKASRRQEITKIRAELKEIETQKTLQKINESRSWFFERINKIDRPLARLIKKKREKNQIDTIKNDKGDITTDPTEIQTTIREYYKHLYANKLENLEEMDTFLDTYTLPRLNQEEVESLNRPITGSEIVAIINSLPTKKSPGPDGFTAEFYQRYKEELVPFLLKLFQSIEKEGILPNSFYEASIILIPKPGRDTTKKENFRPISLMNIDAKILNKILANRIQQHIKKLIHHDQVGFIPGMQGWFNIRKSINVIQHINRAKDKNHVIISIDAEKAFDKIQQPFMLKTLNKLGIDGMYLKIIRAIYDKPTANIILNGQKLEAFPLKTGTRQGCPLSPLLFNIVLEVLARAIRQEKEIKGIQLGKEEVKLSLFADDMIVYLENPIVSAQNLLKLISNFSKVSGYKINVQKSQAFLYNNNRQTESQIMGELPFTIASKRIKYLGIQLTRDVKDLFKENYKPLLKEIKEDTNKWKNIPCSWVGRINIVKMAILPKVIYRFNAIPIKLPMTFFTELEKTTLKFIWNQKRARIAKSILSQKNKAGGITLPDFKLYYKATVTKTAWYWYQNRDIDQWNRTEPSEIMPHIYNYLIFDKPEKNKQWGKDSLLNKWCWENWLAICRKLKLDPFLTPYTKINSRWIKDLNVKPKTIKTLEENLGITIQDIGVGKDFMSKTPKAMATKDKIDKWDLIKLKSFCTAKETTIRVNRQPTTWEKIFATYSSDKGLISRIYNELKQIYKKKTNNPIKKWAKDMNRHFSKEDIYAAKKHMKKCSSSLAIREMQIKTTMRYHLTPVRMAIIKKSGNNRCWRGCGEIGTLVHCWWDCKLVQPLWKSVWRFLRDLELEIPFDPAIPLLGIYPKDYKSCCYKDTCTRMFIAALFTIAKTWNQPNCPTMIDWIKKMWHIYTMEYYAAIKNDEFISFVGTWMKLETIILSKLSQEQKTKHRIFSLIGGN

The first assay has as its target T1, LINE1 reverse transcriptase (Homo sapiens, UniProt O00370).
T1 construct: expressed in transfected cells; host or cells: HeLa Tet-On 3G (Takara, cat no 631183)
The assay is described as follows: Stable artificial-intron Cis LINE1 reporter assay (HeLa Tet-On 3G, Firefly luciferase). It is filed as cell-based. To be noted: HeLa L1 artificial-intron reporter cells, doxycycline 500 ng/mL, 72 h, class symbols. Here is the method: Exemplary compounds, were tested for the ability to inhibit LINE1 reverse transcriptase using a stable artificial-intron Cis LINE1 reporter assay. Assay procedures and results are described below.
A stable HeLa Tet-On 3G (Takara, cat no 631183) cell line expressing a bi-directional inducible LINE1 construct was generated as described in Xie, Y. et al. “Cell division promotes efficient retrotransposition in a stable L1 reporter cell line,” Mobile DNA (2013) 4:10. Single cell clones were screened for high Luciferase expression and the highest expression Firefly expressing clone was chosen for compound testing.
Test compounds were serially diluted in DMSO and spotted in 96-well plates. Subsequently, the HeLa Li artificial-intron reporter cells were plated into the compound-containing wells (8,000 cells/well), and the cells were induced for reporter expression with doxycycline (Sigma-Aldrich cat #D9891) at a final concentration of 500 ng/mL. Luminescence was measured 72 h after plating using the Dual-Glo Luciferase Assay System (Promega cat #E2940) following the manufacturer's instructions. The Firefly Luciferase activity was used to report LINE1 activity.
One may read the IC50 as the point on the concentration scale where inhibition reaches its midpoint. Turning to `C[C@@H]1[C@H](n2ccc(N)nc2=O)O[C@@](CO)(CCl)[C@H]1O` [Compound 12, 4-amino-1-((2R,3S,4S,5R)-5-(chloromethyl)-4-hydroxy-5-(hydroxymethyl)-3-methyltetrahydrofuran-2-yl)pyrimidin-2(1H)-one], the concentration for half-maximal inhibition (IC50) was in the range of 250 to 1000 nM. The same measure, in the same setting: the value for `Nc1ccn([C@@H]2O[C@@](CO)(CBr)[C@@H](O)[C@@H]2F)c(=O)n1` [Compound 172] was at most 50 nM; that for `Nc1nc2c(ncn2[C@@H]2O[C@@](CO)(CF)[C@@H](O)[C@@H]2F)c(=O)[nH]1` [Compound 83, 2-amino-9-((2R,3S,4R,5R)-3-fluoro-5-(fluoromethyl)-4-hydroxy-5-(hydroxymethyl)tetrahydrofuran-2-yl)-1,9-dihydro-6H-purin-6-one] was over 1000 nM; that for `Nc1nc(=O)n([C@@H]2O[C@@](CO)(CI)[C@@H](O)[C@@H]2F)cc1F` [Compound 129, 4-amino-5-fluoro-1-((2R,3S,4R,5R)-3-fluoro-4-hydroxy-5-(hydroxymethyl)-5-(iodomethyl)tetrahydrofuran-2-yl)pyrimidin-2(1H)-one] was over 1000 nM. The molecule `[N-]=[N+]=N[C@]1(CO)O[C@@H](c2ccc3c(N)ncnn23)C[C@@H]1O` [Compound 92, (2R,3S,5R)-5-(4-aminopyrrolo[2,1-f][1,2,4]triazin-7-yl)-2-azido-2-(hydroxymethyl)tetrahydrofuran-3-ol] returned an IC50 of at most 50 nM. Regarding `CC[C@]1(COC(=O)C(C)C)O[C@@H](n2ccc(N)nc2=O)C[C@@H]1OC(=O)C(C)C` [Compound 52, [(2R,3S,5R)-5-(4-amino-2-oxopyrimidin-1-yl)-2-ethyl-3-[(2-methylpropanoyl)oxy]oxolan-2-yl] methyl 2-methylpropanoate], the IC50 was in the range of 100 to 250 nM. In the case of `[N-]=[N+]=N[C@]1(CO)O[C@@H](n2cc(F)c(N)nc2=O)C[C@@H]1O` [Compound 61, 4-amino-1-((2R,4S,5R)-5-azido-4-hydroxy-5-(hydroxymethyl)tetrahydrofuran-2-yl)-5-fluoropyrimidin-2(1H)-one], the half-maximal inhibitory concentration (IC50) was at most 50 nM. `Nc1nc(=O)n([C@@H]2O[C@@](CO)(CBr)[C@@H](O)[C@@H]2F)cc1F` [Compound 86, 4-amino-1-[(2R,3S,4R,5R)-5-(bromomethyl)-3-fluoro-4-hydroxy-5-(hydroxymethyl)oxolan-2-yl]-5-fluoropyrimidin-2-one]: the IC50 was at most 50 nM. For `Nc1cnn([C@H]2C[C@H](O)[C@](CO)(CCl)O2)c(=O)n1` [Compound 18, 5-amino-2-((2R,4S,5R)-5-(chloromethyl)-4-hydroxy-5-(hydroxymethyl)tetrahydrofuran-2-yl)-1,2,4-triazin-3(2H)-one], the IC50 was over 1000 nM. With `CO[C@@H]1[C@H](n2ccc(N)nc2=O)O[C@@](CO)(CCl)[C@H]1O` [Compound 13, 4-amino-1-((2R,3S,4S,5R)-5-(chloromethyl)-4-hydroxy-5-(hydroxymethyl)-3-methoxytetrahydrofuran-2-yl)pyrimidin-2(1H)-one], the half-inhibitory concentration (IC50) was 250 to 1000 nM. Still for that read-out and setting: the value for `O=c1ccn([C@@H]2OC(CO)(CO)[C@@H](O)[C@@H]2F)c(=O)[nH]1` [Compound 3, 1-((2R,3S,4R)-3-fluoro-4-hydroxy-5,5-bis(hydroxymethyl)tetrahydrofuran-2-yl)pyrimidine-2,4(1H,3H)-dione] was over 1000 nM. `C#C[C@]1(CO)O[C@@H](n2cnc3c(N)nc(F)nc32)[C@@H](F)[C@@H]1O` [Compound 42, (2R,3R,4S,5R)-5-(6-amino-2-fluoro-9H-purin-9-yl)-2-ethynyl-4-fluoro-2-(hydroxymethyl) tetrahydrofuran-3-ol] gave an IC50 of at most 50 nM. Consider `[2H]C([2H])(Cl)[C@]1(CO)O[C@@H](n2cc(F)c(N)nc2=O)[C@@H](F)[C@@H]1O` [Compound 175, 4-amino-1-((2R,3S,4R,5R)-5-(chloromethyl-d2)-3-fluoro-4-hydroxy-5-(hydroxymethyl)tetrahydrofuran-2-yl)-5-fluoropyrimidin-2(1H)-one], for which the IC50 was at most 50 nM. As to `C=C[C@]1(CO)O[C@@H](n2cc(F)c(N)nc2=O)[C@@H](F)[C@@H]1O` [Compound 76, 4-amino-1-[(2R,3S,4R,5R)-5-ethenyl-3-fluoro-4-hydroxy-5-(hydroxymethyl)oxolan-2-yl]-5-fluoropyrimidin-2-one], the IC50 is at most 50 nM. `C#C[C@]1(CO)O[C@@H](n2cc(F)c(N)nc2=O)[C@@H](O)[C@@H]1O` [Compound 116, 4-amino-1-((2R,3S,4S,5R)-5-ethynyl-3,4-dihydroxy-5-(hydroxymethyl)tetrahydrofuran-2-yl)-5-fluoropyrimidin-2(1H)-one] displayed a concentration for half-maximal inhibition (IC50) of 100 to 250 nM. `O=c1nc(NO)ccn1[C@H]1C[C@H](O)[C@](CO)(CCl)O1` [Compound 6, 1-((2R,4S,5R)-5-(chloromethyl)-4-hydroxy-5-(hydroxymethyl)tetrahydrofuran-2-yl)-4-(hydroxyamino)pyrimidin-2(1H)-one] gave an IC50 of 100 to 250 nM.

The molecule `C#C[C@]1(CO)O[C@@H](n2cnc3c(N)nc(Cl)nc32)[C@@H](F)[C@@H]1O` [Compound 5, (2R,3R,4S,5R)-5-(6-amino-2-chloro-9H-purin-9-yl)-2-ethynyl-4-fluoro-2-(hydroxymethyl)tetrahydrofuran-3-ol] yielded an IC50 of 50 to 100 nM.

Take `O=c1[nH]c(=O)n([C@@H]2O[C@@](CO)(CCO)[C@@H](O)[C@@H]2F)cc1F` [Compound 179, 5-fluoro-1-((2R,3S,4R,5R)-3-fluoro-4-hydroxy-5-(2-hydroxyethyl)-5-(hydroxymethyl)tetrahydrofuran-2-yl) pyrimidine-2,4(1H,3H)-dione]: the 50% inhibitory concentration (IC50) was over 1000 nM. Turning to `C=C[C@]1(CO)O[C@@H](n2cnc3c(O)nc(N)nc32)C[C@@H]1O` [Compound 69, 2-amino-9-((2R,4S,5R)-4-hydroxy-5-(hydroxymethyl)-5-vinyltetrahydrofuran-2-yl)-1,9-dihydro-6H-purin-6-one], the half-inhibitory concentration (IC50) was at most 50 nM. Regarding `C#C[C@]1(CO)O[C@@H](n2ccc(N)nc2=O)[C@@H](F)[C@@H]1O` [Compound 35, 4-amino-1-((2R,3S,4R,5R)-5-ethynyl-3-fluoro-4-hydroxy-5-(hydroxymethyl)tetrahydrofuran-2-yl)pyrimidin-2(1H)-one], the half-inhibitory concentration (IC50) is at most 50 nM. `Cc1cn([C@@H]2O[C@@](CO)(CCl)[C@@H](O)[C@H]2F)c(=O)[nH]c1=O` [Compound 9, 1-((2R,3R,4R,5R)-5-(chloromethyl)-3-fluoro-4-hydroxy-5-(hydroxymethyl)tetrahydrofuran-2-yl)-5-methylpyrimidine-2,4(1H,3H)-dione]: the concentration for half-maximal inhibition (IC50) is over 1000 nM. Turning to `C#C[C@]1(CO)O[C@@H](n2ccc(=O)[nH]c2=O)[C@@H](F)[C@@H]1O` [Compound 36, 1-((2R,3S,4R,5R)-5-ethynyl-3-fluoro-4-hydroxy-5-(hydroxymethyl)tetrahydrofuran-2-yl)pyrimidine-2,4(1H,3H)-dione], the 50% inhibitory concentration (IC50) was over 1000 nM. Same read-out and setting: the value for `Nc1nc(=O)n([C@@H]2O[C@](/C=C\Cl)(CO)[C@@H](O)[C@@H]2F)cc1F` [Compound 132, 4-amino-1-[(2R,3S,4R,5R)-5-(2-chloroethenyl)-3-fluoro-4-hydroxy-5(Z)-(hydroxymethyl)oxolan-2-yl]-5-fluoropyrimidin-2-one] was over 1000 nM; that for `C#C[C@]1(CO)O[C@@H](n2cnc3c(N)ncnc32)C[C@@H]1O` [Compound 27, (2R,3S,5R)-5-(6-amino-9H-purin-9-yl)-2-ethynyl-2-(hydroxymethyl) tetrahydrofuran-3-ol] was at most 50 nM; that for `CO[C@]1(CO)O[C@@H](n2ccc(N)nc2=O)C[C@@H]1O` [Compound 48, 4-amino-1-((2R,4S,5R)-4-hydroxy-5-(hydroxymethyl)-5-methoxytetrahydrofuran-2-yl)pyrimidin-2(1H)-one] was 50 to 100 nM. Take `Nc1nc(=O)n([C@@H]2O[C@@](CO)(CF)[C@@H](O)[C@@H]2O)cc1F` [Compound 72, 4-amino-5-fluoro-1-((2R,3S,4S,5R)-5-(fluoromethyl)-3,4-dihydroxy-5-(hydroxymethyl)tetrahydrofuran-2-yl)pyrimidin-2(1H)-one]: the half-inhibitory concentration (IC50) lay in the range of 250 to 1000 nM. In turn, `CC[C@]1(CO)O[C@@H](n2cnc3c(N)nc(F)nc32)[C@@H](F)[C@@H]1O` [Compound 81, (2R,3R,4S,5R)-5-(6-amino-2-fluoropurin-9-yl)-2-ethyl-4-fluoro-2-(hydroxymethyl)oxolan-3-ol] displayed an IC50 of 100 to 250 nM.

Staying with this assay, now noted: HeLa L1 artificial-intron reporter cells, doxycycline 500 ng/mL, 72 h, numeric bounds.
For the molecule `O=c1[nH]c(=O)n([C@@H]2O[C@@](CO)(CCl)[C@@H](O)[C@@H]2F)cc1F` [Compound 163, 1-[(2R,3S,4R,5R)-5-(chloromethyl)-3-fluoro-4-hydroxy-5-(hydroxymethyl)oxolan-2-yl]-5-fluoro-3H-pyrimidine-2,4-dione], the half-maximal inhibitory concentration (IC50) was over 30000 nM. The molecule `Nc1ncnn2c([C@H]3C[C@H](O)[C@](CO)(CF)O3)ccc12` [Compound 79, (2R,3S,5R)-5-(4-aminopyrrolo[2,1-f] [1,2,4]triazin-7-yl)-2-(fluoromethyl)-2-(hydroxymethyl)tetrahydrofuran-3-ol] gave an IC50 of over 30000 nM. `CC(C)C(=O)OC[C@@]1(CCl)O[C@@H](n2ncc(N)nc2=O)C[C@@H]1OC(=O)C(C)C` [Compound 174, (2R,3S,5R)-5-(5-amino-3-oxo-1,2,4-triazin-2(3H)-yl)-2-(chloromethyl)-2-((isobutyryloxy)methyl)tetrahydrofuran-3-yl isobutyrate]: the IC50 was over 30000 nM.
